The term Ki denotes a measure of affinity in units of concentration, obtained from inhibition or displacement.

One experiment has as its target D(2) dopamine receptor (Homo sapiens, UniProt P14416). Put plainly: Displacement of [3H]N-methylspiperone from human dopamine D2 receptor expressed in HEK293 cells after 1 hr by liquid scintillation counting analysis. On the technique in general: Displacement assays read how much labelled ligand stays bound in the presence of the test substance.
For experiment [1], the target named is D(3) dopamine receptor (Homo sapiens, UniProt P35462). Put plainly: Displacement of [3H]N-methylspiperone from human dopamine D3 receptor expressed in HEK293 cells after 1 hr by liquid scintillation counting analysis.
Sequence of D(3) dopamine receptor (Homo sapiens, UniProt P35462) (P35462 as listed by the source): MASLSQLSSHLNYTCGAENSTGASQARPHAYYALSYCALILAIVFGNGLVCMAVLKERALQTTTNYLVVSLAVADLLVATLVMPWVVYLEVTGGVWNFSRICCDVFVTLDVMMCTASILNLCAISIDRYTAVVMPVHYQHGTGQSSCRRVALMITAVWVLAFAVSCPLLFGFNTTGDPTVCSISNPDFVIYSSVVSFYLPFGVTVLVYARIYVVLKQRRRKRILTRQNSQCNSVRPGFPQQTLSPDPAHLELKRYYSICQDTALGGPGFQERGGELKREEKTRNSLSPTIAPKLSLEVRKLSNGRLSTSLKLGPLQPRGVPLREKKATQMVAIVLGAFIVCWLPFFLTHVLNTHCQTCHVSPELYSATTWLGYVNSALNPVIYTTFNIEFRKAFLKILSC
Experiment [2] concerns the target D(3) dopamine receptor (Rattus norvegicus, UniProt P19020). Kind of experiment: Displacement of [3H]R-(+)-7-OHDPAT from dopamine D3 receptor in Sprague-Dawley rat ventral striatum after 90 mins.

Sequence of D(2) dopamine receptor (P14416 whole entry): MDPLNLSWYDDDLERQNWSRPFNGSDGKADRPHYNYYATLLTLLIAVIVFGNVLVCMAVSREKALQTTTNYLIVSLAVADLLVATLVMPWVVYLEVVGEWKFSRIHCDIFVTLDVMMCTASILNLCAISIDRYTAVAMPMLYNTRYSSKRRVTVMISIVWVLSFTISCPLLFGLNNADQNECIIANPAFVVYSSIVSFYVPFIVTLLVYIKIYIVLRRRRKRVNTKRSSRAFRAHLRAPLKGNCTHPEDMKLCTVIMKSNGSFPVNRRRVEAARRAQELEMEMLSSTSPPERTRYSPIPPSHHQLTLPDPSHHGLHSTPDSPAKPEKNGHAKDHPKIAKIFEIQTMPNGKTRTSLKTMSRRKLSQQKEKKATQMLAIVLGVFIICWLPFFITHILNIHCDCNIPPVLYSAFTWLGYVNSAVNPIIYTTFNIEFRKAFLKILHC
Sequence of D(3) dopamine receptor (Rattus norvegicus, UniProt P19020) (P19020 whole entry): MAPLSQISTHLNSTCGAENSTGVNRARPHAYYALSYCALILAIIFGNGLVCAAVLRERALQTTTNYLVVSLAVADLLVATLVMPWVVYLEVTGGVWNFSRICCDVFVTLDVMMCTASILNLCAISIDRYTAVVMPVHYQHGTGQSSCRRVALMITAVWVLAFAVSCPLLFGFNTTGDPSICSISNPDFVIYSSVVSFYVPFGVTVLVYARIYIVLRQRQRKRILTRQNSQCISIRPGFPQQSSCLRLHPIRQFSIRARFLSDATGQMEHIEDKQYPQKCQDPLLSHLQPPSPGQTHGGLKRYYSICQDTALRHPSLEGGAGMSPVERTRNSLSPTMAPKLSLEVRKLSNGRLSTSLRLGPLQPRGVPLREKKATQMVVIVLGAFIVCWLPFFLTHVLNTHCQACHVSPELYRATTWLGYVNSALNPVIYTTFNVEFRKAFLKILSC

As for `CCCN(CC[C@]1(O)C[C@@H](NC(=O)c2ccc3ccccc3c2)C1)[C@H]1C[C@@H]1c1cccc(Cl)c1`, the values for the Ki on D(2) dopamine receptor, at D(3) dopamine receptor [1] and at D(3) dopamine receptor [2] were 1220 nM, 38 nM and 28 nM, respectively.

As for `CCCN(CC[C@]1(O)C[C@@H](NC(=O)c2ccc3ccccc3c2)C1)[C@H]1C[C@@H]1c1ccccc1Cl`, the Ki was determined as 923 nM on D(2) dopamine receptor, 22 nM at D(3) dopamine receptor [1] and 19 nM at D(3) dopamine receptor [2].

For `CCCN(CC[C@]1(O)C[C@@H](NC(=O)c2ccc3ccccc3c2)C1)C1CC1c1ccc(Cl)cc1` (some centres undefined), the Ki at D(2) dopamine receptor worked out at 667 nM; at D(3) dopamine receptor [1], 2.6 nM; at D(3) dopamine receptor [2] it was 4.6 nM.
